These results are taken from patent US9505753B2, “Inhibitors of D-amino acid oxidase” (THE JOHNS HOPKINS UNIVERSITY, priority 2012, dated 2016).

Sequence of human recombinant D-amino acid oxidase (P14920 whole entry): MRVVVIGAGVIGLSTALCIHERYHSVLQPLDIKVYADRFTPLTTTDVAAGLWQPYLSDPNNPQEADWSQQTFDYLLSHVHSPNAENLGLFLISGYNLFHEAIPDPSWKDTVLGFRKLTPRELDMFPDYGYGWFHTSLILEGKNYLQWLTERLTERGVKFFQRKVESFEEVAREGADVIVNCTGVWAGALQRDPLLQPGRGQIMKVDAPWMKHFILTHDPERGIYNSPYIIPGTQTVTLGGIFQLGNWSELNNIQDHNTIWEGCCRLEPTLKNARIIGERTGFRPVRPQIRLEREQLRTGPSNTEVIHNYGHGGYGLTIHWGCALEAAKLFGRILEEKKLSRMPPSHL

One assay has as its target human recombinant D-amino acid oxidase (Homo sapiens (Human), UniProt P14920). As to the kind of experiment: In vitro D-amino acid oxidase (DAAO) assay, 96-well plate. Format: biochemical. The following applies: human recombinant DAAO; D-serine 5 mM, FAD 1 μM, 20 min, room temperature, Tris buffer pH 8.5; read-out: Inhibition of DAAO IC50. How it is done: A reliable 96-well plate D-amino acid oxidase (DAAO) assay was developed based on previously published reports (J. Biol. Chem. 277: 27782 (2002)). […] All reactions were carried out for 20 min at room temperature in a 100-μL volume in Tris buffer (50 mM, pH 8.5). Additionally, stock solutions and serial dilutions of potential DAO inhibitors were made in 10:90 DMSO:buffer with a final assay DMSO concentration of 1%.
In the case of `O=c1[nH]c(=O)n(CCc2ccccc2)nc1O` [Compound 5a, 6-Hydroxy-2-phenethyl-1,2,4-triazine-3,5(2H,4H)-dione], the IC50 worked out at 80 nM.
As for `O=c1[nH]c(=O)n(Cc2ccc3ccccc3c2)nc1O` [Compound 5aa, 6-Hydroxy-2-(naphthalen-2-ylmethyl)-1,2,4-triazine-3,5(2H,4H)-dione], the IC50 was found to be 30 nM.
As for `O=c1[nH]c(=O)n(Cc2ccc3cc(F)ccc3c2)nc1O` [Compound 5ab, 2-((6-Fluoronaphthalen-2-yl)methyl)-6-hydroxy-1,2,4-triazine-3,5(2H,4H)-dione], the concentration for half-maximal inhibition (IC50) is 100 nM.
On the same count and under the same terms, in the case of `O=c1[nH]c(=O)n(CCc2cccc(Oc3ccccc3)c2)nc1O` [Compound 5ad, 6-Hydroxy-2-(3-phenoxyphenethyl)-1,2,4-triazine-3,5(2H,4H)-dione] it was 300 nM.
Consider `O=c1[nH]c(=O)n(Cc2ccc(Oc3ccccc3F)cc2)nc1O` [Compound 5ae, 2-(4-(2-Fluorophenoxyl)benzyl)-6-hydroxy-1,2,4-triazine-3,5(2H,4H)-dione], for which the IC50 turned out to be 300 nM.
In the case of `O=c1[nH]c(=O)n(Cc2ccc(-c3ccccc3)cc2)nc1O` [Compound 5af, 2-(Biphenyl-4-ylmethyl)-6-hydroxy-1,2,4-triazine-3,5(2H,4H)-dione], the IC50 was found to be 300 nM.
For `O=c1[nH]c(=O)n(CCc2ccc(F)cc2)nc1O` [Compound 5b, 2-(4-Fluorophenethyl)-6-hydroxy-1,2,4-triazine-3,5(2H,4H)-dione], the IC50 amounted to 60 nM.
In the case of `O=c1[nH]c(=O)n(CCc2cccc(F)c2)nc1O` [Compound 5c, 2-(3-Fluorophenethyl)-6-hydroxy-1,2,4-triazine-3,5(2H,4H)-dione], the IC50 is 60 nM.
`O=c1[nH]c(=O)n(CCc2ccccc2F)nc1O` [Compound 5d, 2-(2-Fluorophenethyl)-6-hydroxy-1,2,4-triazine-3,5(2H,4H)-dione]: the IC50 turned out to be 80 nM.
Still for that read-out and setting: in the case of `O=c1[nH]c(=O)n(CCc2ccc(Cl)cc2)nc1O` [Compound 5e, 2-(4-Chlorophenethyl)-6-hydroxy-1,2,4-triazine-3,5(2H,4H)-dione] it was 30 nM.
As for `O=c1[nH]c(=O)n(CCc2cccc(Cl)c2)nc1O` [Compound 5f, 2-(3-Chlorophenethyl)-6-hydroxy-1,2,4-triazine-3,5(2H,4H)-dione], the IC50 is 60 nM.
As to `O=c1[nH]c(=O)n(CCc2ccccc2Cl)nc1O` [Compound 5g, 2-(2-Chlorophenethyl)-6-hydroxy-1,2,4-triazine-3,5(2H,4H)-dione], the IC50 is 100 nM.
`Cc1ccc(CCn2nc(O)c(=O)[nH]c2=O)cc1` [Compound 5h, 6-Hydroxy-2-(4-methylphenethyl)-1,2,4-triazine-3,5(2H,4H)-dione]: the IC50 is 100 nM.
On to `Cc1cccc(CCn2nc(O)c(=O)[nH]c2=O)c1` [Compound 5i, 6-Hydroxy-2-(3-methylphenethyl)-1,2,4-triazine-3,5(2H,4H)-dione], for which the IC50 amounted to 60 nM.
With `Cc1ccccc1CCn1nc(O)c(=O)[nH]c1=O` [Compound 5j, 6-Hydroxy-2-(2-methylphenethyl)-1,2,4-triazine-3,5(2H,4H)-dione], the IC50 was 60 nM.
As to `O=c1[nH]c(=O)n(CCc2ccc(C(F)(F)F)cc2)nc1O` [Compound 5k, 6-Hydroxy-2-(4-(trifluoromethyl)phenethyl)-1,2,4-triazine-3,5(2H,4H)-dione], the IC50 was found to be 80 nM.
On the same count and under the same terms, in the case of `O=c1[nH]c(=O)n(CCc2cccc(C(F)(F)F)c2)nc1O` [Compound 5l, 6-Hydroxy-2-(3-(trifluoromethyl)phenethyl)-1,2,4-triazine-3,5(2H,4H)-dione] it was 90 nM; in that of `O=c1[nH]c(=O)n(CCc2ccc(Cl)cc2Cl)nc1O` [Compound 5m, 2-(2,4-Dichlorophenethyl)-6-hydroxy-1,2,4-triazine-3,5(2H,4H)-dione], 80 nM; in that of `O=c1[nH]c(=O)n(CCc2cccc3ccccc23)nc1O` [Compound 5n, 6-Hydroxy-2-(2-(naphthalen-1-yl)ethyl)-1,2,4-triazine-3,5(2H,4H)-dione], 100 nM.
For the molecule `O=c1[nH]c(=O)n(CCc2ccc(-c3ccccc3)cc2)nc1O` [Compound 5o, 2-(2-(Biphenyl-4-yl)ethyl)-6-hydroxy-1,2,4-triazine-3,5(2H,4H)-dione], the IC50 is 30 nM.
In the case of `Cn1nc(O)c(=O)[nH]c1=O` [Compound 5p, 6-Hydroxy-2-methyl-1,2,4-triazine-3,5(2H,4H)-dione], the IC50 came out at 3000 nM.
As to `CC(C)CCn1nc(O)c(=O)[nH]c1=O` [Compound 5q, 6-Hydroxy-2-isopentyl-1,2,4-triazine-3,5(2H,4H)-dione], the IC50 was 300 nM.
For `CC(C)(C)CCn1nc(O)c(=O)[nH]c1=O` [Compound 5r, 2-(3,3-Dimethylbutyl)-6-hydroxy-1,2,4-triazine-3,5(2H,4H)-dione], the IC50 was found to be 40000 nM.
Still for that read-out and setting: in the case of `O=c1[nH]c(=O)n(CCCc2ccccc2)nc1O` [Compound 5s, 6-Hydroxy-2-(3-phenylpropyl)-1,2,4-triazine-3,5(2H,4H)-dione] it was 2000 nM; in that of `O=c1[nH]c(=O)n(Cc2ccccc2)nc1O` [Compound 5t, 2-Benzyl-6-hydroxy-1,2,4-triazine-3,5(2H,4H)-dione], 9000 nM.
Still for that read-out and setting: then `O=c1[nH]c(=O)n(Cc2cccc3ccccc23)nc1O` [Compound 5u, 6-Hydroxy-2-(naphthalen-1-ylmethyl)-1,2,4-triazine-3,5(2H,4H)-dione], with 50 nM; and `COc1ccccc1CCn1nc(O)c(=O)[nH]c1=O` [Compound 5v, 6-Hydroxy-2-(2-methoxyphenethyl)-1,2,4-triazine-3,5(2H,4H)-dione], with 200 nM; and `O=c1[nH]c(=O)n(CCc2ccccc2O)nc1O` [Compound 5vp, 6-Hydroxy-2-(2-hydroxyphenethyl)-1,2,4-triazine-3,5(2H,4H)-dione], with 60 nM.
`COc1cccc(CCn2nc(O)c(=O)[nH]c2=O)c1` [Compound 5w, 6-Hydroxy-2-(3-methoxyphenethyl)-1,2,4-triazine-3,5(2H,4H)-dione]: the IC50 turned out to be 100 nM.
Take `O=c1[nH]c(=O)n(CCc2cccc(O)c2)nc1O` [Compound 5wp, 6-Hydroxy-2-(3-hydroxyphenethyl)-1,2,4-triazine-3,5(2H,4H)-dione]: the IC50 is 100 nM.
As to `O=c1[nH]c(=O)n(CCc2ccc(O)cc2)nc1O` [Compound 5xp, 6-Hydroxy-2-(4-hydroxyphenethyl)-1,2,4-triazine-3,5(2H,4H)-dione], the IC50 was 100 nM.
Same read-out and setting: then `O=c1[nH]c(=O)n(CCc2ccc(Cl)c(Cl)c2)nc1O` [Compound 5y, 2-(3,4-Dichlorophenethyl)-6-hydroxy-1,2,4-triazine-3,5(2H,4H)-dione], with 30 nM.
Same read-out and setting: then `O=c1[nH]c(=O)n(CCc2ccc(F)c(Cl)c2)nc1O` [Compound 5z, 2-(3-Chloro-4-fluorophenethyl)-6-hydroxy-1,2,4-triazine-3,5(2H,4H)-dione], with 60 nM; and `O=c1[nH]c(=O)n(CC(F)(F)c2ccccc2)nc1O` [Compound 10a, 2-(2,2-Difluoro-2-phenylethyl)-6-hydroxy-1,2,4-triazine-3,5(2H,4H)-dione], with 400 nM; and `O=c1[nH]c(=O)n(CCc2ccc(F)c(F)c2)nc1O` [Compound 10b, 2-(3,4-Difluorophenethyl)-6-hydroxy-1,2,4-triazine-3,5(2H,4H)-dione], with 40 nM.
For the molecule `O=c1[nH]c(=O)n(CCn2cccc2)nc1O` [Compound 10c, 2-(2-(1H-pyrrol-1-yl)ethyl)-6-hydroxy-1,2,4-triazine-3,5(2H,4H)-dione], the IC50 was found to be 100 nM.
Regarding `O=c1[nH]c(=O)n(CCn2cccn2)nc1O` [Compound 10d, 2-(2-(1H-pyrazol-1-yl)ethyl)-6-hydroxy-1,2,4-triazine-3,5(2H,4H)-dione], the IC50 was determined as 300 nM.
Same read-out and setting: then `O=c1[nH]c(=O)n(CCn2ccc3ccccc32)nc1O` [Compound 10e, 2-(2-(1H-indol-1-yl)ethyl)-6-hydroxy-1,2,4-triazine-3,5(2H,4H)-dione], with 100 nM; and `O=c1[nH]c(=O)n(CCn2cnc3ccccc32)nc1O` [Compound 10f, 2-(2-(1H-benzo[d]imidazol-1-yl)ethyl)-6-hydroxy-1,2,4-triazine-3,5(2H,4H)-dione], with 300 nM.
As for `O=c1[nH]c(=O)n(CCn2ccc3cccnc32)nc1O` [Compound 10g, 2-(2-(1H-pyrrolo[2,3-b]pyridin-1-yl)ethyl)-6-hydroxy-1,2,4-triazine-3,5(2H,4H)-dione], the IC50 turned out to be 300 nM.
With `O=c1[nH]c(=O)n(CCn2ncc3ccccc32)nc1O` [Compound 10h, 2-(2-(1H-indazol-1-yl)ethyl)-6-hydroxy-1,2,4-triazine-3,5(2H,4H)-dione], the IC50 amounted to 200 nM.
As to `O=c1[nH]c(=O)n(CCn2c3ccccc3c3ccccc32)nc1O` [Compound 10i, 2-(2-(9H-carbazol-9-yl)ethyl)-6-hydroxy-1,2,4-triazine-3,5(2H,4H)-dione], the IC50 stood at 7000 nM.
`O=c1[nH]c(=O)n(CCN2CCOCC2)nc1O` [Compound 10j, 6-Hydroxy-2-(2-morpholinoethyl)-1,2,4-triazine-3,5(2H,4H)-dione]: the IC50 turned out to be 1000 nM.
Same read-out and setting: in the case of `CC(Cc1ccccc1)n1nc(O)c(=O)[nH]c1=O` (stereo not shown) [Compound 10k, 6-Hydroxy-2-(1-phenylpropan-2-yl)-1,2,4-triazine-3,5(2H,4H)-dione] it was 300 nM.
For the molecule `O=c1[nH]c(=O)n(CCc2ccccn2)nc1O` [Compound 10l, 6-Hydroxy-2-(2-(pyridin-2-yl)ethyl)-1,2,4-triazine-3,5(2H,4H)-dione], the IC50 was determined as 900 nM.

Staying with this assay, now noted: read-out: Inhibition of DAAO IC50.
Turning to `COc1ccc(CCn2nc(O)c(=O)[nH]c2=O)cc1` [Compound 5x, 6-Hydroxy-2-(4-methoxyphenethyl)-1,2,4-triazine-3,5(2H,4H)-dione], the IC50 worked out at 100 nM.
